# Tested on: OGD-injuried neurons (primary cortical neurons)
# Assay: Cell viability assay: LDH release by OGD-injured primary cortical neurons
# Format: cell-based, mice
# Conditions: drug concentration 10^−6 M/L, OGD 2 hours, LDH after 8 hours; for inhibition at 1 µM: Mus musculus, Primary cortical neuron
# Protocol: After primary neurons were cultured for 9 days, the medium was replaced by DMEM high glucose medium containing 1% FBS, serum-starved overnight and then washed twice with OGD culture solution. This OGD culture solution contains DMEM medium, 1% FBS, 1% penicillin/streptomycin and B27, and contains no sugar. Then, the primary neurons were incubated with the test drugs for 30 minutes, OGD culture solution was added into an anaerobic tank and oxygen-deprived for 2 hours. The OGD culture solution was discarded, and replaced by oxygen-saturated DMEM medium containing 1% FBS, 1% penicillin/streptomycin and B27. After 8 hours the culture solution was collected to measure LDH level.
# After the primary cortical neurons were treated with various processes, neuronal culture solution in six-well plates was pipetted to a 1.5 mL plastic centrifuge tube; cells were washed three times with PBS solution and each well was added PBS 1000 μl. The cells were freezed and thawed repeated for three times, centrifuged at 12000′ g for 5 minutes at 4° C., and the supernatant was removed for use. The activity of LDH enzyme was determined with 50 μl culture solution and 25 μl supernatant using lactate dehydrogenase kit.
# Protective Effects of the Objective Compounds Against Primary Cortical Neuronal Injury Cultured In Vitro (See Table 2)
Compound,inhibition at 1 µM,Inhibition of LDH release (%)
"CC1(C)C2CCC1(C)C(OC(=O)c1ccc(NCc3cc(Cl)cc(Cl)c3O)c(Cl)c1O)C2 (centres unmarked) [ZL006-17, bornyl-2-hydroxy-3-chloro-4-(2-hydroxy-3,5-dichlorobenzyl)aminobenzoate]",48.2%,–
"COC(=O)c1cc(N(C)Cc2cc(F)cc(Cl)c2O)ccc1O [ZL006-11, methyl 2-hydroxy-5-[N-(2-hydroxy-3-chloro-5-fluorobenzyl)-N-methyl]aminobenzoate]",–,41.1%
"bornyl-2-(2-ethoxy-2-carbonylethoxy)-4-[N-(2-hydroxy-3,5-dichlorobenzyl)-N-(2-ethoxy-2-carbonylethyl)]aminobenzoate [ZL006-36]",–,10.4%
"CCCCOc1cc(NCc2cc(C(F)(F)F)cc(Cl)c2O)ccc1C(=O)OC1CC2CCC1(C)C2(C)C (centres unmarked) [ZL006-50, bornyl-2-n-butoxy-4-(2-hydroxy-3-chloro-5-trifluoromethylbenzyl)aminobenzoate]",40.2%,–
"CC(Nc1ccc(C(=O)O)c(O)c1)c1cc(Br)ccc1O (centres unmarked) [ZL006-15, 2-hydroxy-4-[1-(2-hydroxy-5-bromo-phenyl)]ethylaminobenzoic acid]",28.6%,–
"CC1(C)C2CCC1(C)C(OC(=O)c1ccc(NCc3cc(Cl)ccc3O)cc1O)C2 (centres unmarked) [ZL006-66, bornyl-2-hydroxy-4-(2-hydroxy-5-chlorobenzyl) aminobenzoate]",–,13.3%
"CC1(C)C2CCC1(C)C(OC(=O)c1cc(NCc3cc(Cl)ccc3O)ccc1O)C2 (centres unmarked) [ZL006-03, bornyl-2-hydroxy-5-(2-hydroxy-5-chlorobenzyl) aminobenzoate]",–,17.8%
"COc1cc(NCc2cc(Cl)ccc2O)ccc1C(=O)OC1CC2CCC1(C)C2(C)C (centres unmarked) [ZL006-67, bornyl-2-methoxy-4-(2-hydroxy-5-chlorobenzyl) aminobenzoate]",–,0.4%
"CC(=O)Oc1c(Cl)cc(C(F)(F)F)cc1CNc1ccc(C(=O)OC2CC3CCC2(C)C3(C)C)c(O)c1 (centres unmarked) [ZL006-80, bornyl-2-hydroxy-4-(2-acetyloxy-3-chloro-5-trifluoromethylbenzyl)aminobenzoate]",41.1%,–
"CC1(C)C2CCC1(C)C(OC(=O)c1cc(NCc3cc(C(F)(F)F)cc(Cl)c3O)ccc1O)C2 (centres unmarked) [ZL006-48, bornyl-2-hydroxy-5-(2-hydroxy-3-chloro-5-trifluoromethylbenzyl)aminobenzoate]",21.1%,–
"COc1c(Cl)cc(Br)cc1CNc1ccc(C(=O)OC2CC3CCC2(C)C3(C)C)c(O)c1 (centres unmarked) [ZL006-77, bornyl-2-hydroxy-4-(2-methoxy-3-chloro-5-bromobenzyl) aminobenzoate]",–,44.1%
"CC1(C)C2CCC1(C)C(OC(=O)c1ccc(NCc3cc(F)ccc3O)cc1O)C2 (centres unmarked) [ZL006-69, bornyl-2-hydroxy-4-(2-hydroxy-5-fluorobenzyl) aminobenzoate]",–,17.3%
"CC(=O)N(Cc1cc(Br)cc(Cl)c1O)c1ccc(C(=O)OC2CC3CCC2(C)C3(C)C)c(O)c1 (centres unmarked) [ZL006-46, bornyl-2-hydroxy-4-[N-(2-hydroxy-3-chloro-5-bromobenzyl)-N-acetyl]aminobenzoate]",–,72.5%
"COc1cc(NCc2cc(Br)ccc2O)ccc1C(=O)OC1CC2CCC1(C)C2(C)C (centres unmarked) [ZL006-64, bornyl-2-methoxy-4-(2-hydroxy-5-bromobenzyl) aminobenzoate]",–,25.4%
"CCCC(=O)Oc1cc(NCc2cc(Cl)cc(Cl)c2O)ccc1C(=O)OC1CC2CCC1(C)C2(C)C (centres unmarked) [ZL006-23, bornyl-2-butyryloxy-4-(2-hydroxy-3,5-dichlorobenzyl) aminobenzoate]",–,18.7%
"CC(=O)Oc1cc(NCc2cc(C(F)(F)F)cc(Cl)c2O)ccc1C(=O)OC1CC2CCC1(C)C2(C)C (centres unmarked) [ZL006-51, bornyl-2-acetyloxy-4-(2-hydroxy-3-chloro-5-trifluoromethylbenzyl)aminobenzoate]",66.3%,–
"methyl 2-acetyloxy-4-[N-(2-hydroxy-3,5-dichlorobenzyl)-N-(bornyl-2-carbonylethyl)]aminobenzoate [ZL006-38]",–,41.3%
"CC1(C)C2CCC1(C)C(OC(=O)c1cc(NCc3cc(Br)cc(Cl)c3O)ccc1O)C2 (centres unmarked) [ZL006-40, bornyl-2-hydroxy-5-(2-hydroxy-3-chloro-5-bromobenzyl) aminobenzoate]",–,41.8%
"COc1cc(NCc2cc(Cl)cc(Cl)c2O)c(Cl)cc1C(=O)OC1CC2CCC1(C)C2(C)C (centres unmarked) [ZL006-25, bornyl-2-methoxy-4-(2-hydroxy-3,5-dichlorobenzyl) amino-5-chlorobenzoate]",–,30.6%
"CC1(C)C2CCC1(C)C(OC(=O)c1cc(NCc3cc(F)cc(Cl)c3O)ccc1O)C2 (centres unmarked) [ZL006-56, bornyl-2-hydroxy-5-(2-hydroxy-3-chloro-5-fluorobenzyl)aminobenzoate]",50%,–
"methyl 2-(bornyl-2-carbonylethoxy)-4-[N-(2-hydroxy-3,5-dichlorobenzyl)-N-acetyl]aminobenzoate [ZL006-35]",–,12.8%
"CC1(C)C2CCC1(C)C(OC(=O)c1ccc(NCc3cc(Br)ccc3O)cc1O)C2 (centres unmarked) [ZL006-63, bornyl-2-hydroxy-4-(2-hydroxy-5-bromobenzyl) aminobenzoate]",–,22.8%
"CC1(C)C2CCC1(C)C(OC(=O)c1ccc(NCc3cc(F)cc(Cl)c3O)cc1O)C2 (centres unmarked) [ZL006-08, bornyl-2-hydroxy-4-(2-hydroxy-3-chloro-5-fluorobenzyl) aminobenzoate]",–,50.4%
